From PubChem BioAssay AID248 (DTP/NCI, 2004)
Values joined by “and” are separate entries in the source; they are usually repeats but may differ in a detail not shown here. Identical values can stand only once. Toxic doses and inconclusive results are not listed. No stated cut-off is given here; in the data, active means T/C of 150% or more; inactive means T/C below 125%.

Test system: L1210 leukemia ip in BDF1 mice, survival T/C
Assay: NCI In Vivo Anticancer Drug Screen. Data for tumor model L1210 Leukemia (intraperitoneal) in B6D2F1 (BDF1) mice
Conditions: endpoint: mean survival time, higher = longer survival
Summary of the method: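 Transplantable tumor model; survival measured in treated vs vehicle control mice. Value = treated/control.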

[1] = dose: 100.0 mg/kg/injection, schedule: Q04DX003 (ip), vehicle: saline with Tween-80
[2] = dose: 100.0 mg/kg/injection, schedule: Q04DX003 (ip), vehicle: Klucel (hydroxypropylcellulose) (HPC)
[3] = dose: 200.0 mg/kg/injection, schedule: Q04DX003 (ip), vehicle: Klucel (hydroxypropylcellulose) (HPC)
[4] = dose: 200.0 mg/kg/injection, schedule: Q04DX003 (ip), vehicle: saline with Tween-80
[5] = dose: 400.0 mg/kg/injection, schedule: Q04DX003 (ip), vehicle: Klucel (hydroxypropylcellulose) (HPC)
[6] = dose: 400.0 mg/kg/injection, schedule: Q04DX003 (ip), vehicle: saline with Tween-80
[7] = dose: 100.0 mg/kg/injection, schedule: Q01DX009 (ip), vehicle: Klucel (hydroxypropylcellulose) (HPC)
[8] = dose: 200.0 mg/kg/injection, schedule: Q01DX009 (ip), vehicle: Klucel (hydroxypropylcellulose) (HPC)
[9] = dose: 400.0 mg/kg/injection, schedule: Q01DX009 (ip), vehicle: Klucel (hydroxypropylcellulose) (HPC)
[10] = dose: 100.0 mg/kg/injection, schedule: Q01DX009 (ip), vehicle: saline with Tween-80
[11] = dose: 200.0 mg/kg/injection, schedule: Q01DX009 (ip), vehicle: saline with Tween-80

Measured: T/C

O=C(O)CCCCCN1C(=O)c2cccnc2C1=O
inactive: dose: 75.0 mg/kg/injection, schedule: Q04DX003 (ip), vehicle: carboxymethylcellulose (CMC) 103 % of control | dose: 150.0 mg/kg/injection, schedule: Q04DX003 (ip), vehicle: carboxymethylcellulose (CMC) 97 % of control | dose: 300.0 mg/kg/injection, schedule: Q04DX003 (ip), vehicle: carboxymethylcellulose (CMC) 98 % of control

O=C1CC2(CCCCC2)C(=O)N1N1CCCCCC1
inactive: dose: 100.0 mg/kg/injection, schedule: Q01DX001 (ip), vehicle: Klucel (hydroxypropylcellulose) (HPC) 102 % of control | dose: 200.0 mg/kg/injection, schedule: Q01DX001 (ip), vehicle: Klucel (hydroxypropylcellulose) (HPC) 100 % of control | dose: 400.0 mg/kg/injection, schedule: Q01DX001 (ip), vehicle: Klucel (hydroxypropylcellulose) (HPC) 97 % of control

CC(=O)OCC1OC(Sc2ncc3cnccn23)C(OC(C)=O)C(OC(C)=O)C1OC(C)=O (stereo unspecified)
inactive: dose: 100.0 mg/kg/injection, schedule: Q01DX005 (ip), vehicle: saline 88 % of control | dose: 200.0 mg/kg/injection, schedule: Q01DX005 (ip), vehicle: saline 93 % of control

COC(=O)c1c(C(N)=O)n[nH]c1C1OC(COCc2ccccc2)C(OCc2ccccc2)C1OCc1ccccc1 (stereo unspecified)
inactive: dose: 100.0 mg/kg/injection, schedule: Q01DX005 (ip), vehicle: saline with Tween-80 102 % of control | dose: 200.0 mg/kg/injection, schedule: Q01DX005 (ip), vehicle: saline with Tween-80 100 % of control

O=C1C=C(O)c2ccc(=O)[nH]c2C1=O
inactive: dose: 100.0 mg/kg/injection, schedule: Q01DX001 (ip), vehicle: saline 95 % of control | dose: 200.0 mg/kg/injection, schedule: Q01DX001 (ip), vehicle: saline 98 % of control

Cc1sc2ccc(-c3ccccc3)cc2[n+]1C
inactive: dose: 75.0 mg/kg/injection, schedule: Q01DX001 (ip), vehicle: saline 105 % of control | dose: 150.0 mg/kg/injection, schedule: Q01DX001 (ip), vehicle: saline 102 % of control | dose: 300.0 mg/kg/injection, schedule: Q01DX001 (ip), vehicle: saline 107 % of control

O=C(COc1ccc(Cl)c(Cl)c1)Nc1ccc[n+](Cc2ccccc2S(=O)(=O)F)c1
inactive: [1] 96 % of control

O=c1c(Br)cc(Cl)nc2c(Br)cc(Br)cc12
inactive: dose: 12.0 mg/kg/injection, schedule: Q01DX009 (ip), vehicle: Klucel (hydroxypropylcellulose) (HPC) 103 % of control | dose: 25.0 mg/kg/injection, schedule: Q01DX009 (ip), vehicle: Klucel (hydroxypropylcellulose) (HPC) 103 % of control | dose: 25.0 mg/kg/injection, schedule: Q04DX003 (ip), vehicle: Klucel (hydroxypropylcellulose) (HPC) 102 % of control | dose: 50.0 mg/kg/injection, schedule: Q01DX009 (ip), vehicle: Klucel (hydroxypropylcellulose) (HPC) 96 % of control and 89 % of control | dose: 50.0 mg/kg/injection, schedule: Q04DX003 (ip), vehicle: Klucel (hydroxypropylcellulose) (HPC) 98 % of control | [2] 93 % of control and 91 % of control

OC(COc1ccccc1)COc1ccccc1
inactive: [2] 105 % of control | [1] 96 % of control | [3] 105 % of control | [4] 95 % of control | [5] 106 % of control | [6] 93 % of control

COC(=O)/C=C/C(=O)O
inactive: dose: 75.0 mg/kg/injection, schedule: Q01DX001 (ip), vehicle: carboxymethylcellulose (CMC) 86 % of control

CC(=O)Nc1ccc(OC(C)=O)cc1
inactive: [1] 106 % of control | [4] 106 % of control | [6] 116 % of control

Cc1cc([N+](=O)[O-])c(NCCOC(=O)c2ccc([N+](=O)[O-])cc2)c([N+](=O)[O-])c1
inactive: [7] 106 % of control | [8] 112 % of control | [9] 98 % of control

COc1ccc(/C=N/NC(=O)c2ccc(O)cc2)cc1
inactive: [7] 100 % of control | [8] 98 % of control | [9] 94 % of control

Cc1ccc(C(=O)C=Nc2ccc(O)cc2)cc1
inactive: dose: 12.5 mg/kg/injection, schedule: Q04DX002 (ip), vehicle: Klucel (hydroxypropylcellulose) (HPC) 94 % of control | dose: 25.0 mg/kg/injection, schedule: Q04DX002 (ip), vehicle: Klucel (hydroxypropylcellulose) (HPC) 97 % of control | dose: 50.0 mg/kg/injection, schedule: Q04DX002 (ip), vehicle: Klucel (hydroxypropylcellulose) (HPC) 102 % of control

COCCNCCOC
inactive: dose: 50.0 mg/kg/injection, schedule: Q04DX003 (ip), vehicle: saline 106 % of control | dose: 100.0 mg/kg/injection, schedule: Q01DX009 (ip), vehicle: saline 103 % of control | dose: 100.0 mg/kg/injection, schedule: Q04DX003 (ip), vehicle: saline 100 % of control | dose: 200.0 mg/kg/injection, schedule: Q01DX009 (ip), vehicle: saline 98 % of control | dose: 200.0 mg/kg/injection, schedule: Q04DX003 (ip), vehicle: saline 122 % of control | dose: 400.0 mg/kg/injection, schedule: Q01DX009 (ip), vehicle: saline 104 % of control | dose: 400.0 mg/kg/injection, schedule: Q04DX003 (ip), vehicle: saline 103 % of control

CN(C)c1ccc(N=Nc2ccc(C(C)(C)C)cc2)cc1
inactive: [10] 97 % of control | [1] 95 % of control | [11] 94 % of control | [4] 86 % of control | dose: 400.0 mg/kg/injection, schedule: Q01DX009 (ip), vehicle: saline with Tween-80 89 % of control | [6] 96 % of control

Cc1ccc(C)c(NC(=O)N(CC(O)c2ccccc2)C2CCCCC2)c1 (stereo unspecified)
inactive: [7] 103 % of control | [2] 96 % of control | [8] 97 % of control | [3] 100 % of control | [9] 95 % of control | [5] 104 % of control

O=C(O/N=C(\C(=O)c1ccccc1)c1ccccc1)c1ccc(Br)cc1
inactive: dose: 50.0 mg/kg/injection, schedule: Q01DX009 (ip), vehicle: saline with Tween-80 97 % of control | [10] 92 % of control | [1] 94 % of control | [11] 89 % of control | [4] 87 % of control

COCCCNCCCN1CC1
inactive: dose: 31.25 mg/kg/injection, schedule: Q04DX003 (ip), vehicle: saline 105 % of control | dose: 62.5 mg/kg/injection, schedule: Q01DX009 (ip), vehicle: saline 106 % of control | dose: 62.5 mg/kg/injection, schedule: Q04DX003 (ip), vehicle: saline 114 % of control

C[n+]1ccc(Nc2ccc(NC(=O)c3ccc(N)cc3[N+](=O)[O-])cc2)cc1
inactive: dose: 25.0 mg/kg/injection, schedule: Q01DX001 (ip), vehicle: saline with Tween-80 93 % of control and 107 % of control | dose: 50.0 mg/kg/injection, schedule: Q01DX001 (ip), vehicle: saline with Tween-80 97 % of control | dose: 100.0 mg/kg/injection, schedule: Q04DX002 (ip), vehicle: saline with Tween-80 108 % of control and 117 % of control | dose: 200.0 mg/kg/injection, schedule: Q04DX002 (ip), vehicle: saline with Tween-80 94 % of control and 101 % of control | dose: 400.0 mg/kg/injection, schedule: Q01DX001 (ip), vehicle: saline with Tween-80 104 % of control and 91 % of control | dose: 400.0 mg/kg/injection, schedule: Q04DX002 (ip), vehicle: saline with Tween-80 103 % of control and 114 % of control

CN(C)/N=N/c1nc[nH]c1C(=O)NCCc1ccccc1
inactive: dose: 100.0 mg/kg/injection, schedule: Q01DX001 (ip), vehicle: other 108 % of control | dose: 200.0 mg/kg/injection, schedule: Q01DX001 (ip), vehicle: other 108 % of control
